The nature of series [1]: Inhibition of BCRP in human MCF7/MX100 cells assessed as reversal of topotecan resistance after 5 days by MTS/PMS assay.
A short description of series [2]: Inhibition of BCRP (unknown origin) expressed in human HEK293/R2 cells assessed as potentiation of mitoxantrone-induced cytotoxicity after 5 days by MTS/PMS assay.
The nature of series [3]: Inhibition of P-gp (unknown origin) expressed in human LCC6MDR cells assessed as potentiation of mitoxantrone-induced cytotoxicity after 5 days by MTS/PMS assay.
Series [4] in a line: Inhibition of P-gp (unknown origin) expressed in human LCC6MDR cells assessed as reversal of paclitaxel resistance after 5 days by MTS/PMS assay.
Series [5] is described as follows: Inhibition of BCRP (unknown origin) transfected in HEK293/R2 cells assessed as reversal of topotecan resistance after 5 days by MTS/PMS assay.
A short description of series [6]: Inhibition of BCRP (unknown origin) transfected in human HEK293/R2 cells assessed as potentiation of topotecan-induced cytotoxicity measured as topotecan IC50 at 1 uM (Rvb = 531.5 +/- 180 nM).
The nature of series [7]: Inhibition of MDR in human LCC6MDR cells assessed as reduction in cell viability after 5 days by MTS/PMS assay.
A short description of series [8]: Inhibition of MRP1 in human 2008/MRP1 cells assessed as reduction in cell viability after 5 days by MTS/PMS assay.

Each structure is given as a SMILES string.

The EC50 is the concentration at which the effect is half-maximal. In general, IC50 refers to the concentration at which inhibition is half-maximal. In the case of `COC(=O)c1cccc(COc2c(-c3ccc(OCCOCCn4cc(-c5cccc(-c6cn(CCOCCOc7ccc(-c8oc9ccccc9c(=O)c8OCc8cccc(C(=O)OC)c8)cc7)nn6)c5)nn4)cc3)oc3ccccc3c2=O)c1`, the concentration for a half-maximal effect (EC50) in series [1] was 1.1 nM; in series [2], 11 nM; in series [3] it was greater than 2000 nM; in series [4], greater than 1000 nM; in series [5], 2.2 nM. In addition, the IC50 in series [6] came out at 25 nM.

Consider `O=C1c2c(O)ccc(O)c2C(=O)c2c(NCCNCCO)ccc(NCCNCCO)c21` [SMR000058480], for which the IC50 in series [7] is 1500 nM; in series [8], 28 nM.

On to `COC(=O)c1cccc(COc2c(-c3ccc(OCCOCCn4cc(COCc5cn(CCOCCOc6ccc(-c7oc8ccccc8c(=O)c7OCc7cccc(C(=O)OC)c7)cc6)nn5)nn4)cc3)oc3ccccc3c2=O)c1`, for which the figures for the concentration giving a half-maximal response (EC50) in series [1], in series [4] and in series [5] were 2.1 nM, greater than 1000 nM and 4.2 nM, respectively. The 50% inhibitory concentration (IC50) in series [6] was 20 nM.

As for `COc1ccc2c3c([nH]c2c1)[C@H](CC(C)C)N1C(=O)[C@H](CCC(=O)OC(C)(C)C)NC(=O)[C@@H]1C3` [Ko143], the results for the EC50 in series [3] and in series [4] were 943 nM and 1060 nM, respectively.

In the case of `O=c1cc(-c2ccc(OCCOCCn3cc(CN(CCOc4ccc5c(=O)cc(-c6ccccc6)oc5c4)Cc4ccccc4)nn3)cc2)oc2ccccc12`, the concentration giving a half-maximal response (EC50) in series [1] is 205 nM; in series [4], 630 nM; in series [5] it was 86 nM.

As to `O=c1cc(-c2ccccc2)oc2cc(OCCCCc3cn(CCOCCOc4ccc(-c5cc(=O)c6cc(F)ccc6o5)cc4)nn3)ccc12`, the EC50 is 18 nM in series [1], 264 nM in series [4] and 43 nM in series [5].

Regarding `COC(=O)c1cccc(COc2c(-c3ccc(OCCOCCn4cc(CCCOc5ccc6c(=O)cc(-c7ccccc7)oc6c5)nn4)cc3)oc3ccccc3c2=O)c1`, the figures for the EC50 in series [1], in series [4] and in series [5] were 24 nM, 616 nM and 7.2 nM, respectively.

With `COC(=O)c1cccc(COc2c(-c3ccc(OCCOCCOCCn4cc(CN(Cc5ccccc5)Cc5cn(CCOCCOCCOc6ccc(-c7oc8ccccc8c(=O)c7OCc7cccc(C(=O)OC)c7)cc6)nn5)nn4)cc3)oc3ccccc3c2=O)c1`, the EC50 in series [1] was 4.3 nM; in series [4] it was greater than 1000 nM; in series [5], 3.3 nM.

Take `COC(=O)c1cccc(COc2c(-c3ccc(OCCOCCn4cc(CN(Cc5cn(CCOCCOc6ccc(-c7oc8ccccc8c(=O)c7OCc7cccc(C(=O)OC)c7)cc6)nn5)c5ccccc5)nn4)cc3)oc3ccccc3c2=O)c1`: the figures for the EC50 in series [1], in series [4] and in series [5] were 2.2 nM, greater than 1000 nM and 6.8 nM, respectively.

As to `O=c1cc(-c2ccccc2)oc2cc(OCCCCc3cn(CCOCCOCCOc4ccc(-c5cc(=O)c6cc(F)ccc6o5)cc4)nn3)ccc12`, the EC50 worked out at 31 nM in series [1], 325 nM in series [4] and 44 nM in series [5].

For the molecule `COC(=O)c1cccc(COc2c(-c3ccc(OCCOCCn4cc(CCCc5cn(CCOCCOc6ccc(-c7oc8ccccc8c(=O)c7OCc7cccc(C(=O)OC)c7)cc6)nn5)nn4)cc3)oc3ccccc3c2=O)c1`, the figures for the EC50 in series [1], in series [4] and in series [5] were 2.4 nM, greater than 1000 nM and 6.1 nM, respectively. The IC50 in series [6] is 19 nM.

For the molecule `Cc1ccc2oc(-c3ccc(OCCOCCOCCn4cc(CCCOc5ccc(-c6cc(=O)c7ccc(F)cc7o6)cc5)nn4)cc3)cc(=O)c2c1`, the EC50 in series [1] worked out at 20 nM; in series [4] it was 219 nM; in series [5], 14 nM.

Take `COC(=O)c1cccc(COc2c(-c3ccc(OCCOCCn4cc(CN(Cc5ccccc5)Cc5cn(CCOCCOc6ccc(-c7oc8ccccc8c(=O)c7OCc7cccc(C(=O)OC)c7)cc6)nn5)nn4)cc3)oc3ccccc3c2=O)c1`: the EC50 in series [1] was 3.3 nM; in series [4], greater than 1000 nM; in series [5], 5.3 nM. The IC50 in series [6] was 15 nM.

Turning to `O=c1cc(-c2ccc(OCCOCCOCCn3cc(CN(CCOc4ccc5c(=O)cc(-c6ccccc6)oc5c4)Cc4ccccc4)nn3)cc2)oc2ccccc12`, the EC50 in series [1] amounted to 17 nM; in series [4], 275 nM; in series [5], 37 nM.

Regarding `Cc1ccc2oc(-c3ccc(OCCOCCOCCOCCOCCOc4ccc(-c5cc(=O)c6cc(C)ccc6o5)cc4)cc3)cc(=O)c2c1` [1,16-Bis[40-((6-methyl)-4H-chromen-4-on-2-yl)phenyl]-1,4,7,10,13,16-hexaoxahexadecane], the 50% effective concentration (EC50) amounted to 63 nM in series [1], 264 nM in series [4] and 65 nM in series [5].

In the case of `Cc1ccc2oc(-c3ccc(OCCCCc4cn(CCOc5ccc6c(=O)cc(-c7ccccc7)oc6c5)nn4)cc3)cc(=O)c2c1`, the EC50 in series [1] is 223 nM; in series [4], 204 nM; in series [5], 60 nM.

Values taken from BindingDB's records for doi:10.1021/acs.jmedchem.9b00963 (Hong Kong Polytechnic University, 2019).
